Results published in patent publication US20260256792A1, “TREATMENT OF CHRONIC SPONTANEOUS URTICARIA BY ADMINISTERING (R)-2-[3-[4-AMINO-3-(2-FLUORO-4-PHENOXY-PHENYL)PYRAZOLO[3,4-D]PYRIMIDIN-1-YL]PIPERIDINE-1-CARBONYL]-4-METHYL-4-[4-(OXETAN-3-YL)PIPERAZIN-1-YL]PENT-2-ENENITRILE” (priority 2023, published 2026).

Test system: moderate-to-severe chronic spontaneous urticaria (CSU)
Test: Phase 2 CSU study: urticaria activity score over 7 days (UAS7)
Type: in vivo, human
Conditions: Omalizumab-Naïve
Source text: The study comprises a 12 week, randomized, double-blind, placebo-controlled, multi-center, dose-ranging efficacy and safety phase, followed by a 40 week open label extension (OLE) phase (see FIG. 1). The study consists of three phases and an optional OLE phase. […] Clinically, CSU is characterized by the spontaneous and recurrent appearance of pruritic hives. The proposed primary endpoints were the UAS7 at Week 12 in EU and EU reference countries and the ISS7 in the US. Regardless of where a participant was from, all assessments were the same. The UAS7 score is a composite score containing both the HSS7 and the ISS7. This allowed a global assessment of the two key components of urticaria: hives and itch. […] The UAS is a validated PRO measure. […] The daily UAS scores range from 0 to 6 point/day. […] Patients were to complete the UAS using the e-diary. […] The following secondary endpoints were to be analyzed using the same approach as for the primary endpoint: • Change from baseline in UAS7 at Week 4 • Change from baseline in UAS7 at Week 12 (for US and US reference countries) • Change from baseline in ISS7 at Week 12 (except US and US reference countries) • Change from baseline in HSS7 at Week 12 The following responder secondary endpoints were to be analyzed using the Cochran-Mantel-Haenszel test adjusted by region: • Proportion of participants with UAS7<6 at Week 12 • Proportion of participants with UAS7=0 at Week 12 Participants who received selected prohibited medications and/or rescue medications were to be considered as non-responders for time points after the medication usage. For other participants, all available data including those collected during the off-treatment period were to be used to determine the responder/non-responder status. Missing data were to be considered as non-responders.

[1] = Ethnicity Non-Hispanic, 400 mg TID
[2] = History of angioedema No, 400 mg BID
[3] = History of angioedema No, 400 mg QPM
[4] = History of angioedema No, 400 mg TID
[5] = History of angioedema Yes, 400 mg BID
[6] = History of angioedema Yes, 400 mg QPM
[7] = History of angioedema Yes, 400 mg TID
[8] = Race All the Others, 400 mg BID
[9] = Race All the Others, 400 mg QPM
[10] = Race All the Others, 400 mg TID
[11] = Region Eastern Europe, 400 mg BID
[12] = Region Eastern Europe, 400 mg QPM
[13] = Region Eastern Europe, 400 mg TID
[14] = Region Latin America, 400 mg BID
[15] = Region Latin America, 400 mg QPM

CC(C)(C=C(C#N)C(=O)N1CCC[C@@H](n2nc(-c3ccc(Oc4ccccc4)cc3F)c3c(N)ncnc32)C1)N1CCN(C2COC2)CC1 [rilzabrutinib, (R)-2-[3-[4-amino-3-(2-fluoro-4-phenoxy-phenyl)pyrazolo[3,4-d]pyrimidin-1-yl]piperidine-1-carbonyl]-4-methyl-4-[4-(oxetan-3-yl)piperazin-1-yl]pent-2-enenitrile]
Change from Baseline in UAS7 at Week 12: Mean (SD) (Ethnicity Non-Hispanic, 400 mg QPM): −10.78 (9.25)
Change from Baseline in UAS7 at Week 12: LS Mean (SE) [1]: −19.24 (2.48)
Change from Baseline in UAS7 at Week 12: Mean (SD) [1]: −22.02 (10.28)
Change from Baseline in UAS7 at Week 12: Mean (SD) (Gender Female, 400 mg BID): −13.23 (11.66)
Change from Baseline in UAS7 at Week 12: Mean (SD) (Gender Female, 400 mg QPM): −10.93 (9.28)
Change from Baseline in UAS7 at Week 12: Mean (SD) (Gender Female, 400 mg TID): −20.41 (11.94)
Change from Baseline in UAS7 at Week 12: LS Mean (SE) (Gender Male, 400 mg BID): −16.67 (3.54)
Change from Baseline in UAS7 at Week 12: Mean (SD) (Gender Male, 400 mg BID): −16.87 (13.20)
Change from Baseline in UAS7 at Week 12: LS Mean (SE) (Gender Male, 400 mg QPM): −8.84 (4.15)
Change from Baseline in UAS7 at Week 12: Mean (SD) (Gender Male, 400 mg QPM): −9.58 (10.13)
Change from Baseline in UAS7 at Week 12: Mean (SD) (Gender Male, 400 mg TID): −12.72 (5.65)
Change from Baseline in UAS7 at Week 12: LS Mean (SE) [2]: −15.01 (2.39)
Change from Baseline in UAS7 at Week 12: LS Mean Diff vs. placebo (95% CI) [2]: −5.13 (−12.18, 1.92)
Change from Baseline in UAS7 at Week 12: Mean (SD) [2]: −17.10 (12.56)
Change from Baseline in UAS7 at Week 12: LS Mean (SE) [3]: −7.72 (2.58)
Change from Baseline in UAS7 at Week 12: LS Mean Diff vs. placebo (95% CI) [3]: 2.16 (−5.19, 9.52)
Change from Baseline in UAS7 at Week 12: Mean (SD) [3]: −9.12 (7.74)
Change from Baseline in UAS7 at Week 12: LS Mean (SE) [4]: −17.97 (2.40)
Change from Baseline in UAS7 at Week 12: LS Mean Diff vs. placebo (95% CI) [4]: −8.09 (−15.14, −1.03)
Change from Baseline in UAS7 at Week 12: Mean (SD) [4]: −20.20 (12.00)
Change from Baseline in UAS7 at Week 12: LS Mean (SE) [5]: −11.58 (3.69)
Change from Baseline in UAS7 at Week 12: LS Mean Diff vs. placebo (95% CI) [5]: −1.91 (−11.17, 7.35)
Change from Baseline in UAS7 at Week 12: Mean (SD) [5]: −8.60 (9.01)
Change from Baseline in UAS7 at Week 12: LS Mean (SE) [6]: −11.20 (2.97)
Change from Baseline in UAS7 at Week 12: LS Mean Diff vs. placebo (95% CI) [6]: −1.53 (−9.72, 6.65)
Change from Baseline in UAS7 at Week 12: Mean (SD) [6]: −13.08 (11.63)
Change from Baseline in UAS7 at Week 12: LS Mean (SE) [7]: −15.33 (3.68)
Change from Baseline in UAS7 at Week 12: LS Mean Diff vs. placebo (95% CI) [7]: −5.66 (−14.82, 3.50)
Change from Baseline in UAS7 at Week 12: Mean (SD) [7]: −16.58 (10.23)
Change from Baseline in UAS7 at Week 12: LS Mean (SE) [8]: −11.33 (3.66)
Change from Baseline in UAS7 at Week 12: LS Mean Diff vs. placebo (95% CI) [8]: −4.82 (−14.87, 5.24)
Change from Baseline in UAS7 at Week 12: Mean (SD) [8]: −11.25 (10.32)
Change from Baseline in UAS7 at Week 12: LS Mean (SE) [9]: −8.43 (3.32)
Change from Baseline in UAS7 at Week 12: LS Mean Diff vs. placebo (95% CI) [9]: −1.92 (−11.55, 7.72)
Change from Baseline in UAS7 at Week 12: Mean (SD) [9]: −9.59 (9.91)
Change from Baseline in UAS7 at Week 12: LS Mean (SE) [10]: −14.94 (3.44)
Change from Baseline in UAS7 at Week 12: LS Mean Diff vs. placebo (95% CI) [10]: 8.43 (−18.08, 1.23)
Change from Baseline in UAS7 at Week 12: Mean (SD) [10]: −14.86 (9.62)
Change from Baseline in UAS7 at Week 12: LS Mean (SE) (Race White, 400 mg BID): −15.38 (2.37)
Change from Baseline in UAS7 at Week 12: LS Mean Diff vs. placebo (95% CI) (Race White, 400 mg BID): −4.73 (−11.30, 1.84)
Change from Baseline in UAS7 at Week 12: Mean (SD) (Race White, 400 mg BID): −15.92 (12.79)
Change from Baseline in UAS7 at Week 12: LS Mean (SE) (Race White, 400 mg QPM): −9.37 (2.37)
Change from Baseline in UAS7 at Week 12: LS Mean Diff vs. placebo (95% CI) (Race White, 400 mg QPM): 1.28 (−5.33, 7.88)
Change from Baseline in UAS7 at Week 12: LS Mean (SE) (Race White, 400 mg TID): −17.97 (2.44)
Change from Baseline in UAS7 at Week 12: LS Mean Diff vs. placebo (95% CI) (Race White, 400 mg TID): −7.33 (−13.95, −0.70)
Change from Baseline in UAS7 at Week 12: Mean (SD) (Race White, 400 mg TID): −20.70 (11.84)
Change from Baseline in UAS7 at Week 12: LS Mean (SE) (Region Asia, 400 mg BID): −11.32 (3.76)
Change from Baseline in UAS7 at Week 12: LS Mean Diff vs. placebo (95% CI) (Region Asia, 400 mg BID): −4.86 (−15.18, 5.46)
Change from Baseline in UAS7 at Week 12: Mean (SD) (Region Asia, 400 mg BID): −11.25 (10.32)
Change from Baseline in UAS7 at Week 12: LS Mean (SE) (Region Asia, 400 mg QPM): −9.00 (3.50)
Change from Baseline in UAS7 at Week 12: Mean (SD) (Region Asia, 400 mg QPM): −9.59 (9.91)
Change from Baseline in UAS7 at Week 12: LS Mean (SE) (Region Asia, 400 mg TID): −14.25 (3.99)
Change from Baseline in UAS7 at Week 12: LS Mean Diff vs. placebo (95% CI) (Region Asia, 400 mg TID): −7.78 (−18.32, 2.76)
Change from Baseline in UAS7 at Week 12: LS Mean (SE) [11]: −6.34 (10.64)
Change from Baseline in UAS7 at Week 12: LS Mean Diff vs. placebo (95% CI) [11]: 13.37 (−19.79, 46.54)
Change from Baseline in UAS7 at Week 12: Mean (SD) [11]: −20.14 (18.13)
Change from Baseline in UAS7 at Week 12: LS Mean (SE) [12]: −5.35 (5.65)
Change from Baseline in UAS7 at Week 12: LS Mean Diff vs. placebo (95% CI) [12]: 14.37 (−6.40, 35.15)
Change from Baseline in UAS7 at Week 12: Mean (SD) [12]: −5.79 (5.45)
Change from Baseline in UAS7 at Week 12: LS Mean (SE) [13]: −25.97 (6.17)
Change from Baseline in UAS7 at Week 12: LS Mean Diff vs. placebo (95% CI) [13]: −6.26 (−24.55, 12.03)
Change from Baseline in UAS7 at Week 12: Mean (SD) [13]: −21.88 (11.40)
Change from Baseline in UAS7 at Week 12: LS Mean (SE) [14]: −9.26 (3.71)
Change from Baseline in UAS7 at Week 12: LS Mean Diff vs. placebo (95% CI) [14]: 2.62 (−7.19, 12.43)
Change from Baseline in UAS7 at Week 12: Mean (SD) [14]: −10.23 (11.81)
Change from Baseline in UAS7 at Week 12: LS Mean (SE) [15]: −10.74 (3.14)
Change from Baseline in UAS7 at Week 12: LS Mean Diff vs. placebo (95% CI) [15]: 1.14 (−7.86, 10.15)
